# Data published in US4117230A, “Hydantoin derivatives as therapeutic agents” (priority 1977, dated 1978).
# Counter-ions that a name gives are not always drawn.
# Key:
# [1] = system: lenticular opacities in galactosemic rats; assay: severity of lenticular opacities in galactosemic rats (percentage of lens area involved); type: in vivo, rat; conditions: for lenses with area of involvement never less than 10%: 17 days, control 75%
# Method: (§1) The activity of the compounds of the present invention, as agents for the control of chronic diabetic complications, is determined by their ability to successfully pass one or more of the following standard biological and/or pharmacological tests, viz., (1) measuring their ability to inhibit the enzyme activity of isolated aldose reductase; (2) measuring their ability to reduce or inhibit sorbitol accumulation in the sciatic nerve of acutely sterptozotocinized (i.e., diabetic) rats; (3) measuring their ability to reverse already-elevated sorbitol levels in the sciatic nerve and lens of chronic streptozotocin-induced diabetic rats; (4) measuring their ability to prevent or inhibit galactitol formation in the lens of acutely galactosemic rats, and (5) measuring their ability to delay cataract formation and reduce the severity of lens opacities in chronic galactosemic rats.
# (§2) To determine the effect of 6-fluoro-spiro-[chroman-4,4'-imidazolidine]-2',5'-dione on cataract formation in galactosemis, rats were fed a 30% galactose diet with and without this compound for a period of 29 days and eye examinations also were routinely conducted approximately twice a week throughout this period. The experimental animals received the test compound mixed in the food at concentration levels necessary to afford approximate doses of 10 mg./kg. and 20 mg./kg., respectively. Control animals received the galactose diet alone (i.e., without the compound). […] The corresponding value obtained in rats receiving the test compound at 20 mg./kg. was 0%.
# The effectiveness of 6-fluoro-spiro-[chroman-4,4'-imidazolidine]-2',5'-dione in delaying cataract development in rats is further highlighted by the test producedure of Example XLIV by giving careul consideration to the severity of the lenticular opacities involved. In this study, the percentage of lens areas involved were monitored throughout the 29-day period and the results obtained served as an index of severity. […]
# aldose reductase = molecular target: T1, aldose reductase (Bos taurus, UniProt P16116); assay: inhibition of aldose reductase enzyme activity (procedure of S. Hayman et al., modified by K. Sestanj et al.); type: biochemical, calf
# T1 construct: partially purified aldose reductose enzyme obtained from calf lens; from tissue; host or cells: calf lens
# Method: as §1
# Hayman et al., as described in the Journal of Biological Chemistry, Vol. 240, p. […] In every case, the substrate employed ws partially purified aldose reductose enzyme obtained from calf lens.
# [2] = system: sorbitol levels in diabetic rats; assay: control of sorbitol formation in diabetic rats, oral route (summary statement); type: in vivo, rat; conditions: 0.75 mg./kg. to 20 mg./kg.
# Text: As previously indicated, the spiro-hydantoin compounds of this invention are all readily adapted to therapeutic use as aldose reductase inhibitors for the control of chronic diabetic complications, in view of their ability to reduce lens sorbitol levels in diabetic subjects to a staistically significant degree. […] The other compounds of this invention also cause similar results. Furthermore, all the herein described compounds of this invention can be administered by either the oral or parenteral routes of administration, for the present purposes at hand, without causing any significant untoward pharmacological side reactions to occur in the subject to whom they are so administered. In general, these compounds are ordinarily administered in dosages ranging from about 0.1 mg. to about 10 mg. per kg. of body weight per day, although variations will necessarily occur depending upon the weight and condition of the subject being treated and the particular route of administration chosen.
# [3] = system: galactitol formation in acutely galactosemic rats (lens); assay: inhibition of galactitol formation in the lens of acutely galactosemic rats; type: in vivo, rat; conditions: 30% galactose diet, seven days
# Method: as §1
# The ability of 6-fluoro-spiro-[chroman-4,4'-imidazolidine]-2',5'-dione to prevent or inhibit galactitol formation in acutely galactosemic rats was determined by administering said compound to the animals, via their feed, for a period of seven days. In this study, normal male rats were first divided into groups of six animals each and then fed a 30% galactose diet together with the compound to be administered at three different dosage levels. […]
# [4] = system: galactitol levels in the lens of galactosemic subjects; assay: lowering of galactitol levels in the lens of galactosemic subjects (summary statement); type: in vivo; conditions: qualitative statement
# [5] = system: sorbitol accumulation in the sciatic nerve of streptozotocinized (i.e., diabetic) rats; assay: inhibition of sorbitol accumulation in the sciatic nerve of acutely streptozotocinized (diabetic) rats; type: in vivo, rat; conditions: measured at 27 h, vs untreated
# Method: as §1
# The following spiro-hydantoin compounds of Preparation C and Examples I-V, VII-IX, XI-XVII, XIX-XXV, XXVII and XXX-XXXIII, respectively, were tested for their ability to reduce or inhibit sorbitol accumulation in the sciatic nerve of streptozotocinized (i.e., diabetic) rats by the procedure essentially described in U.S. Pat. No. 3,821,383. In the present study, the amount of sorbitol accumulation in the sciatic nerves was measured 27 hours after induction of diabetes. The compounds were administered orally at the dose levels indicated at 4, 8 nd 24 hours following the administration of streptozotocin. The results obtained in this manner are presented below in terms of percent inhibition (%) afforded by the test compound as compared to the case where no compound was administered (i.e., the untreated animal where sorbitol levels normally rise from approximately […]. tissue to as high as […]. tissue in the 27-hour test period): […]
# [6] = system: sorbitol levels in the sciatic nerve and the lens of streptozotocin-induced diabetic rats; assay: reversal of already-elevated sorbitol levels in sciatic nerve and lens of chronic streptozotocin-induced diabetic rats; type: in vivo, rat; conditions: 2.5 mg./kg. orally twice a day, seven days; two weeks after streptozotocin 65 mg./kg. i.v.; three hours post dose
# Method: as §1
# 6-Fluoro-spiro-[chroman-4,4'-imidazolidine]-2',5'-dione (the product of Example XXII) was tested for its ability to reverse already-elevated sorbital levels in streptozotocininduced diabetic rats of two weeks duration (i.e., chronic) by administering said compound orally to the animals for a period of seven days. In this study, the sorbital determinations were carried out in both the sciatic nerve and the lens. Streptozotocin was first administered to the animals at 65 mg./kg., via the intravenous route. […]
# [7] = system: cataract formation in galactosemic rats; assay: delay of cataract formation in galactosemic rats (incidence of lenticular opacities); type: in vivo, rat; conditions: 30% galactose diet
# Method: as §1, §2
# [8] = system: sorbitol levels in the sciatic nerve and lens of diabetic subjects; assay: lowering of sorbitol levels in sciatic nerve (peripheral nerves) and lens of diabetic subjects (summary statement); type: in vivo; conditions: qualitative statement
# [9] = type: physicochemical
# Method: The sodium salt of 6-fluoro-spiro-[chroman-4,4'-imidazolidine]-2',5'-dione is prepared by dissolving said compound in water containing an equivalent amount in moles of sodium hydroxide and then freeze-drying the mixture.
compound,measurement,setting,value
"O=C1NC(=O)C2(CCOc3ccc(F)cc32)N1 (stereo not shown) [Ex. XXII, 6-fluoro-spiro[chroman-4,4'-imidazolidine]-2',5'-dione]",lenses with area of involvement never less than 10%,[1]; 10 mg./kg.,6%
same,lenses with area of involvement never less than 10%,[1]; 20 mg./kg.,0%
same,severity of lenticular opacities versus control group,"[1]; treated groups, including 29-day mark",always less than that found in the control group
same,inhibition at 100 µM,"aldose reductase; 10^-4 M, calf lens enzyme, read-out: Percent inhibition of aldose reductase enzyme activity",84%
same,inhibition at 10 µM,"aldose reductase; 10^-5 M, calf lens enzyme, read-out: Percent inhibition of aldose reductase enzyme activity",58%
same,inhibition at 1 µM,"aldose reductase; 10^-6 M, calf lens enzyme, read-out: Percent inhibition of aldose reductase enzyme activity",52%
same,inhibition at 0.1 µM,"aldose reductase; 10^-7 M, calf lens enzyme, read-out: Percent inhibition of aldose reductase enzyme activity",3%
same,aldose reductase inhibitory activity (in words),aldose reductase; qualitative statement,highly potent
same,control (inhibition) of the formation of sorbitol levels (in words),[2],to a significantly high degree
same,inhibition of galactitol values in the lens,[3]; 10 mg./kg. in feed,40%
same,inhibition of galactitol values in the lens,[3]; 20 mg./kg. in feed,72%
same,lowering of galactitol levels in the lens (in words),[4],extremely effective
same,Percent inhibition of sorbitol accumulation in the sciatic nerve,"[5]; 0.75 mg./kg. orally at 4, 8 and 24 h after streptozotocin",45%
same,Percent inhibition of sorbitol accumulation in the sciatic nerve,"[5]; 1.5 mg./kg. orally at 4, 8 and 24 h after streptozotocin",72%
same,reduction in sorbitol levels in the lens,[6],71%
same,reduction in sorbitol levels in the sciatic nerve,[6],68%
same,delay in cataract formation,"[7]; 20 mg./kg., 29-day mark",an impressive delay in cataract formation was still observed at the 29-day mark
same,eyes with lenticular opacities,"[7]; 22-day mark, 10 mg./kg. in food",greater than 90%
same,eyes with lenticular opacities,"[7]; 29-day mark, 20 mg./kg. in food",37%
same,eyes with lenticular opacities,"[7]; 17 days, 10 mg./kg. in food, control 100%",6%
same,eyes with lenticular opacities,"[7]; 17 days, 20 mg./kg. in food, control 100%",0%
same,lenticular opacities in the eyes,"[7]; after 8-14 days, either 10 mg./kg. or 20 mg./kg. in food, control 90% of eyes",no opacities being present
same,delay in cataract formation,[7]; all treated groups (10 and 20 mg./kg.),delay in cataract formation continued in all the treated groups until the 22-day mark
same,lowering of sorbitol levels in sciatic nerve (peripheral nerves) and lens (in words),[8],extremely effective
"O=C1NC(=O)C2(CCOc3ccc(F)cc32)N1 (stereo not shown) [sodium salt of 6-fluoro-spiro-[chroman-4,4'-imidazolidine]-2',5'-dione]",solubility in water,[9],freely soluble in water
